Measurements from US20110257110A1, “Composition comprising a glycoside of a mono- or diacylglycerol compound and an oil rich in n-3 polyunsaturated fatty acids, a method of producing the composition and use of the composition” (HYBEN VITAL LICENS APS, priority 2008, published 2011).

Assays:
[1] = aqueous solutions as described in WO03/43613, storage; cited from earlier work
[2] = system: human peripheral blood leukocytes; experiment: chemiluminescence of peripheral blood leukocytes (oxidative burst response); type: cell-based; settings: fairly low concentrations
From the text: Chemiluminescence is a measure of oxidative burst response. […] As the actual tissue damage caused by inflammatory cells such as PMN's and monocytes/macrophages, through the release of proteolytic and hydrolytic enzymes as well as toxic reactive oxygen radicals are activated in the tissue and joints, the isolated compound should be a potent inhibitor of the oxidative burst response of the human peripheral blood polymorphonuclear leukocytes, the most important and abundant inflammatory cells. It is therefore believed that the glycosides of mono- or diacylglycerol compounds, especially GOPO, are responsible for the anti inflammatory effects of rose hip extracts.

[3] = system: polymorphonuclear leucocytes; settings: WO 03/043613 A1; cited from earlier work
mononuclear leucocytes = settings: WO 03/043613 A1; cited from earlier work

CC/C=C\C/C=C\C/C=C\CCCCCCCC(=O)OCC(CO[C@@H]1O[C@H](CO)[C@H](O)[C@H](O)[C@H]1O)OC(=O)CCCCCCC/C=C\C/C=C\C/C=C\CC (stereo partly drawn) [GOPO, 3-β-D-galactopyranosyloxy-2-(octadeca-9Z,12Z,15Z-trienoyloxy)propanyl octadeca-9Z,12Z,15Z-trienoate]
stability in aqueous solutions [1]: lack stability
chemiluminescence of human peripheral blood leukocytes [2]: inhibited
chemiluminescence of polymorphonuclear leucocytes [3]: alleviating
chemotaxis of mononuclear leucocytes (mononuclear leucocytes): alleviating
